A short description of data set [1]: Distribution ratio (logD) in ionic liquid-based aqueous two-phase system (Ammoeng 110/K2HPO4). To be noted: Ammoeng 110 (0.60–0.65 g, filled to 4 g) / K2HPO4-KH2PO4 buffer, vortex 45 s, 5 min phase separation, LC–MS after EZ:faast SPE and derivatization (peptides after 6 M HCl hydrolysis, 20 h, 110 °C), duplicates, numbers only plotted (Fig. 2, Fig. 3).
Details of data set [2]: method as in 2 sources, ref Hardy (1985) ||| ref Jakubke and Jeschkeit (1982). Conditions: isoelectric point of free amino acid, cited from earlier work.
Details of data set [3]: method as in Kyte and Dolittle (1982). To be noted: hydropathy scale; ref Kyte and Dolittle (1982); cited from earlier work.

Entries after “also recorded” stand apart in the source; their conditions may differ. Read-outs that look alike come from different tables or passages of the source. Marks after values point to notes of the source that are not given here. Where a SMILES comes first, the peptide text is derived from it.

On to `C[C@H](N)C(=O)N[C@@H](C)C(=O)N[C@@H](CC(=O)O)C(=O)N[C@@H](C)C(=O)N[C@@H](C)C(=O)O` [AADAA], for which the “Distribution in IL-ATPS (logD, D = c upper phase / c lower phase), in words” value in data set [1] (pH 6.0) and in data set [1] (pH 7.0) was “concentrated in the ionic liquid-containing upper phase” each time.

Take `C[C@H](N)C(=O)N[C@@H](C)C(=O)N[C@@H](Cc1ccccc1)C(=O)N[C@@H](C)C(=O)N[C@@H](C)C(=O)O` [AAFAA] (H-AAFAA-OH): the “Distribution in IL-ATPS (logD, D = c upper phase / c lower phase), in words” value in data set [1] (pH 6.0) and in data set [1] (pH 7.0) was “concentrated in the ionic liquid-containing upper phase” in each case.

In the case of `C[C@H](N)C(=O)N[C@@H](C)C(=O)NCC(=O)N[C@@H](C)C(=O)N[C@@H](C)C(=O)O` [AAGAA] (H-AAGAA-OH), the “Distribution in IL-ATPS (logD, D = c upper phase / c lower phase), in words” value is recorded as “almost equally distributed between the two phases” in data set [1] (pH 6.0) and “almost equally distributed between the two phases; also recorded: slightly more concentrated in the ionic liquid rich upper phase” in data set [1] (pH 7.0).

Regarding `C[C@H](N)C(=O)N[C@@H](C)C(=O)N[C@@H](Cc1c[nH]cn1)C(=O)N[C@@H](C)C(=O)N[C@@H](C)C(=O)O` [AAHAA], the “Distribution in IL-ATPS (logD, D = c upper phase / c lower phase), in words” value in data set [1] (pH 6.0) is reported as “enriched in the upper phase”; in data set [1] (pH 7.0), “accumulation of AAHAA in the upper phase was also detected, but not as strong as at pH 6.0”.

Take `CC(C)C[C@H](NC(=O)[C@H](C)NC(=O)[C@H](C)N)C(=O)N[C@@H](C)C(=O)N[C@@H](C)C(=O)O` [AALAA] (H-AALAA-OH): the “Distribution in IL-ATPS (logD, D = c upper phase / c lower phase), in words” value in data set [1] (pH 6.0) was “almost equally distributed between the two phases”; in data set [1] (pH 7.0), “almost equally distributed between the two phases; also recorded: slightly more concentrated in the ionic liquid rich upper phase”.

For the compound `C[C@H](N)C(=O)N[C@@H](C)C(=O)N[C@@H](CO)C(=O)N[C@@H](C)C(=O)N[C@@H](C)C(=O)O` [AASAA] (H-AASAA-OH), the “Distribution in IL-ATPS (logD, D = c upper phase / c lower phase), in words” value in data set [1] (pH 6.0) and in data set [1] (pH 7.0) was “concentrated in the ionic liquid-containing upper phase” each time.

For the compound `N[C@@H](CCC(=O)O)C(=O)O` [Glutamic acid], the “Distribution in IL-ATPS (logD, D = c upper phase / c lower phase), in words” value in data set [1] (pH 6.0) and in data set [1] (pH 7.0) was “strongly enriched in the ionic liquids-containing upper phase” each time. The pI in data set [2] (ref Hardy (1985)) is recorded as 3.24^a.

`NCC(=O)O` [Glycine]: the “Distribution in IL-ATPS (logD, D = c upper phase / c lower phase), in words” value in data set [1] (pH 6.0) was “distributed equally between the ionic liquid-rich upper and the phosphate-rich lower phase”; in data set [1] (pH 7.0) it was “distributed more into the ionic liquid-rich upper phase”. In addition, in data set [2] (ref Hardy (1985)), the pI is given as 5.97^a.

On to `N[C@@H](Cc1c[nH]cn1)C(=O)O` [Histidine], for which the “Distribution in IL-ATPS (logD, D = c upper phase / c lower phase), in words” value in data set [1] (pH 6.0) and in data set [1] (pH 7.0) was “strongly enriched in the ionic liquids-containing upper phase” in each case. In addition, the pI in data set [2] (ref Hardy (1985)) is on record as 7.59^a.

As for `CC(C)C[C@H](N)C(=O)O` [Leucine], the “Distribution in IL-ATPS (logD, D = c upper phase / c lower phase), in words” value in data set [1] (pH 6.0) is “distributed equally between the ionic liquid-rich upper and the phosphate-rich lower phase”; in data set [1] (pH 7.0), “marginally higher concentrated in the phosphate buffer-rich lower phase”.

For `N[C@@H](Cc1ccccc1)C(=O)O` [Phenylalanine], the “Hydrophobicity of the side chain” value in data set [3] is 2.8^c. The “Distribution in IL-ATPS (logD, D = c upper phase / c lower phase), in words” value in data set [1] (pH 6.0) and in data set [1] (pH 7.0) was “strongly enriched in the ionic liquids-containing upper phase” in each case. Besides, the pI in data set [2] (ref Jakubke and Jeschkeit (1982)) is 5.48^b.

For `N[C@@H](CO)C(=O)O` [Serine], the “Distribution in IL-ATPS (logD, D = c upper phase / c lower phase), in words” value was “distributed equally between the ionic liquid-rich upper and the phosphate-rich lower phase” in data set [1] (pH 6.0); “distributed more into the ionic liquid-rich upper phase” in data set [1] (pH 7.0). Moreover, the pI in data set [2] (ref Hardy (1985)) is on record as 5.68^a.

The values are drawn from publication PMC5918145, “Quantification of amino acids and peptides in an ionic liquid based aqueous two-phase system by LC–MS analysis” (AMB Express, 2018).
